The text below walks through data of ChEMBL document CHEMBL1201862, “PubChem BioAssay data set” (2004).

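Step 1: Grow cells in 96-well plates. Step 2: Expose to compound for 48 hours at 5 concentrations. Step 3: Interpolate endpoints linearly; if unreached, use highest concentration. GI50 marks 50% less growth.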 Activity calls are given as the source filed them. No stated cut-off is given here; in the data, active = GI50 up to about 1.1 µM and inactive = higher.

What all share (assay): NCI-60 cell line screen, 48 h
Assay [1] relates to SN12C.
The subject of assay [2] is HOP-62.
Assay [3] deals with HCT-15.
The test system of assay [4] is SK-MEL-2.
Assay [5] concerns MOLT-4.
Assay [6] deals with SK-MEL-5.
Assay [7] concerns CCRF-CEM.
The test system of assay [8] is BT-549.
Assay [9] relates to MCF7.
Assay [10] has as its system 786-0.
The subject of assay [11] is M14.
Assay [12] deals with NCI/ADR-RES.
Assay [13] relates to SF-295.
The subject of assay [14] is DU-145.
The test system of assay [15] is NCI-H460.
Assay [16] concerns NCI-H23.
The subject of assay [17] is ACHN.
Assay [18] concerns T47D.
Assay [19] deals with KM12.
Assay [20] has as its system Hs-578T.

Regarding `COc1ccc(N2C(=O)[C@H]3CC(C)c4c([nH]c5ccccc45)[C@H]3C2=O)cc1` (stereo not given in full), the GI50 in assay [1] is 6.38 µM (inactive); in [2] it was 2.15 µM (inactive); in assay [3], 2.72 µM; in assay [4], 2.24 µM (inactive); in [5], 3.78 µM (inactive); in [6], 2.31 µM (inactive). Also, the GI50 in [7] is 2.49 µM (inactive); in assay [8], 8.83 µM (inactive); in assay [9], 2.25 µM (inactive); in assay [10], 3.48 µM (inactive); in [11] it was 2.48 µM (inactive); in [12], 1.63 µM (inactive). For the same molecule, the GI50 in assay [13] is 1.74 µM (inactive); in assay [14] it was 4.7 µM (inactive); in assay [15] it was 3.69 µM (inactive); in [16] it was 3.8 µM (inactive); in [17], 6.92 µM (inactive); in assay [18], 4.26 µM (inactive). Moreover, the GI50 was 2.77 µM (inactive) in [19] and 1.88 µM (inactive) in assay [20].
Consider `O=C1CSC(c2cccc(Oc3ccccc3)c2)N1c1cccc(Cl)c1Cl` (stereo not given), for which the GI50 in assay [1] is 31.5 µM (inactive); in assay [2] it was 41.4 µM (inactive); in [3], 19.5 µM; in assay [4] it was 18.1 µM (inactive); in assay [5], 22.5 µM (inactive); in assay [6] it was 18.4 µM (inactive). In addition, the GI50 in assay [7] was 18.5 µM (inactive); in assay [8], 19.9 µM (inactive); in [9], 13.7 µM (inactive); in assay [10], 27.7 µM (inactive); in [11], 40.4 µM (inactive); in assay [12], 21.9 µM (inactive). Also, the GI50 is 39.5 µM (inactive) in assay [13]; 45 µM (inactive) in [14]; 26 µM (inactive) in assay [15]; 27.5 µM (inactive) in assay [16]; 20.7 µM (inactive) in assay [17]; 35.8 µM (inactive) in assay [18]. In addition, the GI50 in assay [19] is 26.7 µM (inactive); in assay [20] it was 27.8 µM (inactive).
In the case of `Cc1ccc(C2=CC(=O)OC(C[P+](c3ccccc3)(c3ccccc3)c3ccccc3)(c3ccccc3)O2)cc1` (stereo not given), the GI50 in assay [1] is 27.2 µM (inactive); in assay [2] it was 19.5 µM (inactive); in [3], 20 µM; in assay [4] it was 15.2 µM (inactive); in [5], 21.3 µM (inactive); in [6] it was 15.4 µM (inactive). The GI50 in assay [7] was 16.8 µM (inactive); in assay [8] it was 26.7 µM (inactive); in assay [9], 21.1 µM (inactive); in assay [10] it was 19.3 µM (inactive); in assay [11], 17 µM (inactive); in assay [12] it was 19 µM (inactive). In addition, the GI50 is 26.9 µM (inactive) in [13]; 16.5 µM (inactive) in assay [14]; 17.8 µM (inactive) in assay [15]; 13.6 µM (inactive) in assay [16]; 21.3 µM (inactive) in assay [17]; 20.6 µM (inactive) in [18]. The values for the GI50 in assay [19] and in assay [20] were 17.7 µM (inactive) and 18.2 µM (inactive), respectively.
